# Data published in PubChem BioAssay AID2060491 (Molecular Pharmacology Branch, DTP, NCI, 2025).
# Values joined by “and” are separate entries in the source; they are usually repeats but may differ in a detail not shown here. Equal entries are not always repeated.
# Tested on: 857933-349-R-J2-PDC complex spheroids, viability
# Experiment: Anticancer human tumor 857933-349-R-J2-PDC patient-derived colon adenocarcinoma cell line growth inhibition [GQUAD]
# Details: for viability, T/C: stronger effect = lower value
# Source text: DNA G-quadruplex Stabilizer Agents in Combinations in Complex Spheroids
# A high-throughput screen of multi-cell type tumor spheroids was designed to identify active combinations of DNA G-quadruplex stabilizer agents and targeted small molecules. Complex spheroids include a stromal component modeled by human endothelial cells (HUVEC) and fibroblasts modeled by human mesenchymal stem cells (MSCs). The concentration ranges selected for each drug and investigational agent were based upon clinically achievable concentrations if the clinical Cmax of the agent was known.
# Compounds. The drugs and investigational agents: pidnarulex (CX-5461; NSC782164), APTO-253 (NSC789042), BRACO-19 (NSC847499), peposertib (NSC802822), ceralasertib (NSC780249), elimusertib (NSC800525), camonsertib (NSC841442), AZD-1390 (NSC803789), olaparib (NSC753686), talazoparib (NSC767125), ART-558 (NSC835418), sotorasib (NSC818433), MRTX-1133 (NSC836407), SN-38 (NSC673596), topotecan (NSC609699), etoposide (NSC141540), doxorubicin (NSC123127), gemcitabine (NSC613327), 5-fluorouracil (NSC19893), paclitaxel (NSC125973), vemurafenib (NSC761431), panobinostat (NSC761190), R-306465 (JNJ-16241199; NSC773264), adavosertib (NSC754352), TP-3654 (NSC805149), carboplatin (NSC241240), KSQ-4279 (NSC840948), and staurosporine (NSC755774) were obtained from the National Cancer Institute (NCI) Developmental Therapeutics Program Chemical Repository (34). The FDA-approved anticancer drug set is available from the NCI Developmental Therapeutics Program. […] The stock solutions were prepared in dimethyl sulfoxide (DMSO, Sigma-Aldrich, St. Louis, MO, cat. D2650) at 800-fold the tested concentration and stored at -70 degrees C prior to their use. All drugs and investigational agents were tested over a range starting from a high concentration at or near the clinical Cmax and decreasing in half-log increments. If the clinical Cmax for an agent had not been determined, the highest concentration tested was 10 microM.
# 2.3 Cell Culture. All cells were maintained in an incubator at 37 degrees C and 5% CO2 with 95% humidity. The PDC lines were cultured according to standard operating procedures established by the NCI PDMR. All PDCs were thawed and cultured in Matrigel-coated flasks prepared with a working solution of 1X Ham's F-12 nutrient mix, without supplementation (Invitrogen, cat. 11765054), 100 U/mL penicillin-streptomycin (Invitrogen, cat. 15140122), and 2.5% Matrigel (Corning Inc., cat. 354248) for the first three passages. The 857933-349-R-J2-PDC line was cultured in 6C/Colon 1B media, which includes advanced DMEM/F-12 (Thermo Fisher Scientific, cat. 12634028), 10 mM HEPES (Thermo Fisher Scientific, cat. 15630080), 1X GlutaMAX supplement (Thermo Fisher Scientific, cat. 35050061), 0.1 mg/mL primocin (InvivoGen, cat. ant-pm-2), 10% defined fetal bovine serum, heat inactivated (HyClone Laboratories Inc., cat. SH30070.03HI), 50% L-WRN conditioned media (ATCC, cat. CRL-3276), 1.25 mM N-Acetyl-L-cysteine (Sigma-Aldrich, cat. A9165), 10 mM nicotinamide (Sigma-Aldrich, cat. N0636), 1X B-27 supplement (Thermo Fisher Scientific, cat. 17504044), 1X N-2 supplement (Thermo Fisher Scientific, cat. 17502048), 10 microM Y-27632 dihydrochloride (Tocris Bioscience, cat. 1254), and 50 ng/mL human EGF recombinant protein (Thermo Fisher Scientific, cat. PHG0311). The 485176-168-R4-J1-PDC line was cultured in Panc media, which includes all 6C/Colon 1B media components plus 100 ng/mL human FGF-10 (Thermo Fisher Scientific, cat. 100-26), 500 nM SB-431542 (Selleckchem, cat. S1067), and gastrin (Tocris, cat. 3006).
# […]
# [1] = curve of first compound, second compound 0.0316 µM
# [2] = curve of first compound, second compound 0.1 µM
# [3] = curve of first compound, second compound 0.316 µM
# [4] = curve of first compound, second compound 1 µM
# [5] = curve of first compound, second compound 3.16 µM
# [6] = curve of first compound, second compound 10 µM
# [7] = second compound 0.0316 µM, first compound 0.0316 µM
# [8] = second compound 0.0316 µM, first compound 0.1 µM
# [9] = second compound 0.0316 µM, first compound 0.316 µM
# [10] = second compound 0.0316 µM, first compound 1 µM
# [11] = second compound 0.0316 µM, first compound 3.16 µM
# [12] = second compound 0.0316 µM, first compound 10 µM
# [13] = second compound 0.1 µM, first compound 0.0316 µM
# [14] = second compound 0.1 µM, first compound 0.1 µM
# [15] = second compound 0.1 µM, first compound 0.316 µM
# [16] = second compound 0.1 µM, first compound 1 µM
# [17] = second compound 0.1 µM, first compound 3.16 µM
# [18] = second compound 0.1 µM, first compound 10 µM
# [19] = second compound 0.316 µM, first compound 0.0316 µM
# [20] = second compound 0.316 µM, first compound 0.1 µM
# [21] = second compound 0.316 µM, first compound 0.316 µM
# [22] = second compound 0.316 µM, first compound 1 µM
# [23] = second compound 0.316 µM, first compound 3.16 µM
# [24] = second compound 0.316 µM, first compound 10 µM
# [25] = second compound 1 µM, first compound 0.0316 µM
# [26] = second compound 1 µM, first compound 0.1 µM
# [27] = second compound 1 µM, first compound 0.316 µM
# [28] = second compound 1 µM, first compound 1 µM
# [29] = second compound 1 µM, first compound 3.16 µM
# [30] = second compound 1 µM, first compound 10 µM
# [31] = second compound 3.16 µM, first compound 0.0316 µM
# [32] = second compound 3.16 µM, first compound 0.1 µM
# [33] = second compound 3.16 µM, first compound 0.316 µM
# [34] = second compound 3.16 µM, first compound 1 µM
# [35] = second compound 3.16 µM, first compound 3.16 µM
# [36] = second compound 3.16 µM, first compound 10 µM
# [37] = second compound 10 µM, first compound 0.0316 µM
# [38] = second compound 10 µM, first compound 0.1 µM
# [39] = second compound 10 µM, first compound 0.316 µM
# [40] = second compound 10 µM, first compound 1 µM
# [41] = second compound 10 µM, first compound 3.16 µM
# [42] = second compound 10 µM, first compound 10 µM
# 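Note: spheroids exposed to compounds for one week before readout.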
# 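Throughout, for viability, T/C: percent viability relative to vehicle DMSO wells taken as 100%.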
smiles,measurement,setting,value
Cc1[nH]c2ccc(F)cc2c1-c1nc2c3cccnc3c3ncccc3c2[nH]1,"viability, T/C",compound 0.0316 µM,106% [middle of 12 runs]
same,"viability, T/C",compound 0.1 µM,107% [middle of 12 runs]
same,"viability, T/C",compound 0.316 µM,103% [middle of 12 runs]
same,"viability, T/C",compound 1 µM,104% [middle of 12 runs]
same,"viability, T/C",compound 3.16 µM,92.1% [middle of 12 runs]
same,"viability, T/C",compound 10 µM,95.5% [middle of 12 runs]
same,IC50,"compound alone, run of 02/20/2024",> 10000 nM
same,IC50,"compound alone, run of 02/26/2024",> 10000 nM
CC1COCCN1c1cc(C2(O)CC3CCC(C2)O3)c2cnn(-c3ccn[nH]3)c2n1 (stereo unspecified) + Cc1cnc(CNC(=O)c2c(=O)c3ccc(N4CCCN(C)CC4)nc3n3c2sc2ccccc23)cn1,IC50,[1],< 31.6 nM
same,IC50,[2],< 31.6 nM
same,IC50,[3],< 31.6 nM
same,IC50,[4],< 31.6 nM
same,IC50,[5],< 31.6 nM
same,IC50,[6],< 31.6 nM
same,"viability, T/C",[7],49.9%
same,"viability, T/C",[8],38.6%
same,"viability, T/C",[9],36.8%
same,"viability, T/C",[10],32.6%
same,"viability, T/C",[11],35.3%
same,"viability, T/C",[12],32%
same,"viability, T/C",[13],33%
same,"viability, T/C",[14],30.3%
same,"viability, T/C",[15],21.1%
same,"viability, T/C",[16],28%
same,"viability, T/C",[17],31.8%
same,"viability, T/C",[18],34%
same,"viability, T/C",[19],8.32%
same,"viability, T/C",[20],5.49%
same,"viability, T/C",[21],5.41%
same,"viability, T/C",[22],4.77%
same,"viability, T/C",[23],9.73%
same,"viability, T/C",[24],13.8%
same,"viability, T/C",[25],2.88%
same,"viability, T/C",[26],2.12%
same,"viability, T/C",[27],2.17%
same,"viability, T/C",[28],2.14%
same,"viability, T/C",[29],4.27%
same,"viability, T/C",[30],1.54%
same,"viability, T/C",[31],1.85%
same,"viability, T/C",[32],1.84%
same,"viability, T/C",[33],1.55%
same,"viability, T/C",[34],1.35%
same,"viability, T/C",[35],1.5%
same,"viability, T/C",[36],0.57%
same,"viability, T/C",[37],0.52%
same,"viability, T/C",[38],0.38%
same,"viability, T/C",[39],0.33%
same,"viability, T/C",[40],0.38%
same,"viability, T/C",[41],0.85%
same,"viability, T/C",[42],0.32%
O=c1[nH]cc(F)c(=O)[nH]1,"viability, T/C",compound 0.0316 µM,105% and 101% and 108%
same,"viability, T/C",compound 0.1 µM,88% and 103% and 95.2%
same,"viability, T/C",compound 0.316 µM,99.2% and 102% and 99.4%
same,"viability, T/C",compound 1 µM,69.5% and 66.1% and 91.1%
same,"viability, T/C",compound 3.16 µM,35.9% and 40.5% and 63.2%
same,"viability, T/C",compound 10 µM,22.8% and 19.8% and 47.5%
same,IC50,curve of compound,1950 nM and 2010 nM and 8270 nM
COc1ncnc(C2CC2)c1-c1ncc2cnn(Cc3ccc(-c4nc(C(F)(F)F)cn4C(C)C)cc3)c2n1 + Cc1[nH]c2ccc(F)cc2c1-c1nc2c3cccnc3c3ncccc3c2[nH]1,IC50,[1],> 10000 nM
same,IC50,[2],> 10000 nM
same,IC50,[3],> 10000 nM
same,IC50,[4],> 10000 nM
same,IC50,[5],> 10000 nM
same,IC50,[6],> 10000 nM
same,"viability, T/C",[7],102%
same,"viability, T/C",[8],104%
same,"viability, T/C",[9],99%
same,"viability, T/C",[10],104%
same,"viability, T/C",[11],109%
same,"viability, T/C",[12],103%
same,"viability, T/C",[13],106%
same,"viability, T/C",[14],106%
same,"viability, T/C",[15],107%
same,"viability, T/C",[16],106%
same,"viability, T/C",[17],98%
same,"viability, T/C",[18],102%
same,"viability, T/C",[19],102%
same,"viability, T/C",[20],100%
same,"viability, T/C",[21],96.1%
same,"viability, T/C",[22],100%
same,"viability, T/C",[23],94.3%
same,"viability, T/C",[24],95.6%
same,"viability, T/C",[25],102%
same,"viability, T/C",[26],91.4%
same,"viability, T/C",[27],96.3%
same,"viability, T/C",[28],87.9%
same,"viability, T/C",[29],98.4%
same,"viability, T/C",[30],90.7%
same,"viability, T/C",[31],98%
same,"viability, T/C",[32],83.1%
same,"viability, T/C",[33],84.5%
same,"viability, T/C",[34],83.2%
same,"viability, T/C",[35],92.5%
same,"viability, T/C",[36],83.4%
same,"viability, T/C",[37],86.3%
same,"viability, T/C",[38],87.7%
same,"viability, T/C",[39],84.6%
same,"viability, T/C",[40],91.3%
same,"viability, T/C",[41],90.3%
same,"viability, T/C",[42],88.2%
CC1COCCN1c1cc(C2(O)CC3CCC(C2)O3)c2cnn(-c3ccn[nH]3)c2n1 (stereo unspecified) + Cc1[nH]c2ccc(F)cc2c1-c1nc2c3cccnc3c3ncccc3c2[nH]1,IC50,[1],289 nM
same,IC50,[2],273 nM
same,IC50,[3],440 nM
same,IC50,[4],312 nM
same,IC50,[5],699 nM
same,IC50,[6],267 nM
same,"viability, T/C",[7],76.9%
same,"viability, T/C",[8],64.5%
same,"viability, T/C",[9],49.6%
same,"viability, T/C",[10],41.2%
same,"viability, T/C",[11],47.2%
same,"viability, T/C",[12],42.5%
same,"viability, T/C",[13],69.5%
same,"viability, T/C",[14],61.1%
same,"viability, T/C",[15],44.6%
same,"viability, T/C",[16],47.3%
same,"viability, T/C",[17],50.3%
same,"viability, T/C",[18],51.4%
same,"viability, T/C",[19],67.8%
same,"viability, T/C",[20],65.5%
same,"viability, T/C",[21],52.7%
same,"viability, T/C",[22],42.3%
same,"viability, T/C",[23],45.8%
same,"viability, T/C",[24],42.9%
same,"viability, T/C",[25],58.2%
same,"viability, T/C",[26],59.8%
same,"viability, T/C",[27],46.5%
same,"viability, T/C",[28],44.6%
same,"viability, T/C",[29],46.4%
same,"viability, T/C",[30],47.2%
same,"viability, T/C",[31],64.9%
same,"viability, T/C",[32],59.6%
same,"viability, T/C",[33],52.4%
same,"viability, T/C",[34],46.2%
same,"viability, T/C",[35],48.4%
same,"viability, T/C",[36],45.5%
same,"viability, T/C",[37],77.4%
same,"viability, T/C",[38],61.2%
same,"viability, T/C",[39],49%
same,"viability, T/C",[40],42.4%
same,"viability, T/C",[41],42%
same,"viability, T/C",[42],46.7%
